Laboratory results as given in ChEMBL document CHEMBL2440076, “New triarylpyrazoles as broad-spectrum anticancer agents: design, synthesis, and biological evaluation” (Eur J Med Chem, 2013).

What was measured:
Format in all cases: functional
T47D [1] = test: Growth inhibition of human T47D cells assessed as cell growth at 5X10'-7 M after 48 hrs by sulforhodamine B assay; conditions: read-out: Activity
SF-539 [2] = test: Growth inhibition of human SF539 cells assessed as cell growth at 5X10'-7 M after 48 hrs by sulforhodamine B assay; conditions: SF-539, 48 h, read-out: Activity
OVCAR-5 = test: Growth inhibition of human OVCAR5 cells assessed as cell growth at 5X10'-5 M after 48 hrs by sulforhodamine B assay; conditions: OVCAR-5, 48 h, read-out: Activity
786-0 = test: Growth inhibition of human 786-0 cells assessed as cell growth at 5X10'-8 M after 48 hrs by sulforhodamine B assay; conditions: 786-0, 48 h, read-out: Activity
SNB-75 [3] = test: Growth inhibition of human SNB75 cells assessed as cell growth at 5X10'-9 M after 48 hrs by sulforhodamine B assay; conditions: SNB-75, 48 h, read-out: Activity
U-251 = test: Growth inhibition of human U251 cells assessed as cell growth at 5X10'-6 M after 48 hrs by sulforhodamine B assay; conditions: U-251, 48 h, read-out: Activity
SK-MEL-28 [4] = test: Growth inhibition of human SK-MEL-28 cells assessed as cell growth at 5X10'-5 M after 48 hrs by sulforhodamine B assay; conditions: SK-MEL-28, 48 h, read-out: Activity
PC-3 = test: Growth inhibition of human PC3 cells assessed as cell growth at 5X10'-5 M after 48 hrs by sulforhodamine B assay; conditions: PC-3, 48 h, read-out: Activity
NCI-H460 = test: Growth inhibition of human NCI-H460 cells assessed as cell growth at 5X10'-5 M after 48 hrs by sulforhodamine B assay; conditions: NCI-H460, 48 h, read-out: Activity
SF-539 [5] = test: Growth inhibition of human SF539 cells assessed as cell growth at 5X10'-6 M after 48 hrs by sulforhodamine B assay; conditions: SF-539, 48 h, read-out: Activity
SF-539 [6] = test: Growth inhibition of human SF539 cells assessed as cell growth at 5X10'-8 M after 48 hrs by sulforhodamine B assay; conditions: SF-539, 48 h, read-out: Activity
[7] = Growth inhibition of human NCI-ADR-RES cells assessed as cell growth at 5X10'-9 M after 48 hrs by sulforhodamine B assay; conditions: read-out: Activity
HOP-92 = test: Growth inhibition of human HOP92 cells assessed as cell growth at 5X10'-7 M after 48 hrs by sulforhodamine B assay; conditions: HOP-92, 48 h, read-out: Activity
COLO 205 [8] = test: Growth inhibition of human COLO205 cells assessed as cell growth at 5X10'-9 M after 48 hrs by sulforhodamine B assay; conditions: COLO 205, 48 h, read-out: Activity
UO-31 [9] = test: Growth inhibition of human UO31 cells assessed as cell growth at 5X10'-9 M after 48 hrs by sulforhodamine B assay; conditions: UO-31, 48 h, read-out: Activity
UACC-62 [10] = test: Growth inhibition of human UACC62 cells assessed as cell growth at 5X10'-8 M after 48 hrs by sulforhodamine B assay; conditions: UACC-62, 48 h, read-out: Activity
SK-MEL-2 = test: Growth inhibition of human SK-MEL-2 cells assessed as cell growth at 5X10'-9 M after 48 hrs by sulforhodamine B assay; conditions: SK-MEL-2, 48 h, read-out: Activity
MDA-MB-435 = test: Growth inhibition of human MDA-MB-435 cells assessed as cell growth at 5X10'-6 M after 48 hrs by sulforhodamine B assay; conditions: MDA-MB-435, 48 h, read-out: Activity
NCI-H23 = test: Growth inhibition of human NCI-H23 cells assessed as cell growth at 5X10'-9 M after 48 hrs by sulforhodamine B assay; conditions: NCI-H23, 48 h, read-out: Activity
T47D [11] = test: Growth inhibition of human T47D cells assessed as cell growth at 5X10'-8 M after 48 hrs by sulforhodamine B assay; conditions: read-out: Activity
M14 = test: Growth inhibition of human M14 cells assessed as cell growth at 5X10'-7 M after 48 hrs by sulforhodamine B assay; conditions: M14, 48 h, read-out: Activity
MDA-MB-231 = test: Growth inhibition of human MDA-MB-231 cells assessed as cell growth at 5X10'-5 M after 48 hrs by sulforhodamine B assay; conditions: MDA-MB-231, 48 h, read-out: Activity
ACHN = test: Growth inhibition of human ACHN cells assessed as cell growth at 5X10'-8 M after 48 hrs by sulforhodamine B assay; conditions: read-out: Activity
UO-31 [12] = test: Growth inhibition of human UO31 cells assessed as cell growth at 5X10'-7 M after 48 hrs by sulforhodamine B assay; conditions: UO-31, 48 h, read-out: Activity
UACC-257 = test: Growth inhibition of human UACC257 cells assessed as cell growth at 5X10'-5 M after 48 hrs by sulforhodamine B assay; conditions: UACC-257, 48 h, read-out: Activity
OVCAR-8 = test: Growth inhibition of human OVCAR8 cells assessed as cell growth at 5X10'-5 M after 48 hrs by sulforhodamine B assay; conditions: OVCAR-8, 48 h, read-out: Activity
SNB-75 [13] = test: Growth inhibition of human SNB75 cells assessed as cell growth at 5X10'-5 M after 48 hrs by sulforhodamine B assay; conditions: SNB-75, 48 h, read-out: Activity
SK-MEL-28 [14] = test: Growth inhibition of human SK-MEL-28 cells assessed as cell growth at 5X10'-7 M after 48 hrs by sulforhodamine B assay; conditions: SK-MEL-28, 48 h, read-out: Activity
NCI-H226 = test: Growth inhibition of human NCI-H226 cells assessed as cell growth at 5X10'-5 M after 48 hrs by sulforhodamine B assay; conditions: NCI-H226, 48 h, read-out: Activity
HOP-62 = test: Growth inhibition of human HOP62 cells assessed as cell growth at 5X10'-7 M after 48 hrs by sulforhodamine B assay; conditions: HOP-62, 48 h, read-out: Activity
UACC-62 [15] = test: Growth inhibition of human UACC62 cells assessed as cell growth at 5X10'-9 M after 48 hrs by sulforhodamine B assay; conditions: UACC-62, 48 h, read-out: Activity
HT-29 = test: Growth inhibition of human HT-29 cells assessed as cell growth at 5X10'-8 M after 48 hrs by sulforhodamine B assay; conditions: HT-29, 48 h, read-out: Activity
TK-10 = test: Growth inhibition of human TK10 cells assessed as cell growth at 5X10'-7 M after 48 hrs by sulforhodamine B assay; conditions: TK-10, 48 h, read-out: Activity
SK-MEL-5 = test: Growth inhibition of human SK-MEL-5 cells assessed as cell growth at 5X10'-6 M after 48 hrs by sulforhodamine B assay; conditions: SK-MEL-5, 48 h, read-out: Activity
MDA-MB-468 = test: Growth inhibition of human MDA-MB-468 cells assessed as cell growth at 5X10'-8 M after 48 hrs by sulforhodamine B assay; conditions: MDA-MB-468, 48 h, read-out: Activity
COLO 205 [16] = test: Growth inhibition of human COLO205 cells assessed as cell growth at 5X10'-5 M after 48 hrs by sulforhodamine B assay; conditions: COLO 205, 48 h, read-out: Activity

Compound | growth at 0.5 µM (T47D [1]) [%] | growth at 0.5 µM (SF-539 [2]) [%] | growth at 50 µM (OVCAR-5) [%] | growth at 0.05 µM (786-0) [%] | growth at 0.005 µM (SNB-75 [3]) [%] | growth at 5 µM (U-251) [%] | growth at 50 µM (SK-MEL-28 [4]) [%] | growth at 50 µM (PC-3) [%] | growth at 50 µM (NCI-H460) [%] | growth at 5 µM (SF-539 [5]) [%] | growth at 0.05 µM (SF-539 [6]) [%] | growth at 0.005 µM [7] [%] | growth at 0.5 µM (HOP-92) [%] | growth at 0.005 µM (COLO 205 [8]) [%] | growth at 0.005 µM (UO-31 [9]) [%] | growth at 0.05 µM (UACC-62 [10]) [%] | growth at 0.005 µM (SK-MEL-2) [%] | growth at 5 µM (MDA-MB-435) [%] | growth at 0.005 µM (NCI-H23) [%] | growth at 0.05 µM (T47D [11]) [%] | also measured
COc1cc(-c2nn(-c3cccc(NC(=O)c4cccc(C(F)(F)F)c4)c3)cc2-c2ccncc2)ccc1Cl | 84 | 81 | 31 | 98 | 90 | 14 | 38 | 14 | -10 | -41 | 94 | 96 | 53 | 108 | 82 | 96 | 96 | -56 | 91 | 91 | growth at 0.5 µM (M14): 91%; growth at 50 µM (MDA-MB-231): -21%; growth at 0.05 µM (ACHN): 103%; growth at 0.5 µM (UO-31 [12]): 62%; growth at 50 µM (UACC-257): 48%; growth at 50 µM (OVCAR-8): 10%; growth at 50 µM (SNB-75 [13]): 8%; growth at 0.5 µM (SK-MEL-28 [14]): 87%; growth at 50 µM (NCI-H226): -7%; growth at 0.5 µM (HOP-62): 97%; growth at 0.005 µM (UACC-62 [15]): 97%; growth at 0.05 µM (HT-29): 96%; growth at 0.5 µM (TK-10): 108%; growth at 5 µM (SK-MEL-5): -38%; growth at 0.05 µM (MDA-MB-468): 90%; growth at 50 µM (COLO 205 [16]): -72%
COc1cc(-c2nn(-c3cccc(NC(=O)Nc4cccc(C(F)(F)F)c4)c3)cc2-c2ccncc2)ccc1Cl | 85 | 79 | -43 | 95 | 92 | -86 | -69 | -22 | -35 | -36 | 94 | 99 | 55 | 98 | 88 | 94 | 101 | -47 | 96 | 98 | growth at 0.5 µM (M14): 73%; growth at 50 µM (MDA-MB-231): -56%; growth at 0.05 µM (ACHN): 97%; growth at 0.5 µM (UO-31 [12]): 61%; growth at 50 µM (UACC-257): -87%; growth at 50 µM (OVCAR-8): -24%; growth at 50 µM (SNB-75 [13]): -30%; growth at 0.5 µM (SK-MEL-28 [14]): 87%; growth at 50 µM (NCI-H226): 7%; growth at 0.5 µM (HOP-62): 94%; growth at 0.005 µM (UACC-62 [15]): 95%; growth at 0.05 µM (HT-29): 99%; growth at 0.5 µM (TK-10): 79%; growth at 5 µM (SK-MEL-5): -97%; growth at 0.05 µM (MDA-MB-468): 92%; growth at 50 µM (COLO 205 [16]): -89%
O=C(Nc1cccc(-n2cc(-c3ccncc3)c(-c3ccc(Cl)c(O)c3)n2)c1)c1ccc(N2CCOCC2)c(C(F)(F)F)c1 | 105 | 73 | 71 | 95 | 94 | 16 | -54 | 7 | -10 | 21 | 93 | 97 | 53 | 98 | 88 | 100 | 96 | 28 | 93 | 101 | growth at 0.5 µM (M14): 84%; growth at 50 µM (MDA-MB-231): -8%; growth at 0.05 µM (ACHN): 99%; growth at 0.5 µM (UO-31 [12]): 112%; growth at 50 µM (UACC-257): -9%; growth at 50 µM (OVCAR-8): 26%; growth at 50 µM (SNB-75 [13]): 8%; growth at 0.5 µM (SK-MEL-28 [14]): 91%; growth at 50 µM (NCI-H226): 58%; growth at 0.5 µM (HOP-62): 117%; growth at 0.005 µM (UACC-62 [15]): 98%; growth at 0.05 µM (HT-29): 101%; growth at 0.5 µM (TK-10): 97%; growth at 5 µM (SK-MEL-5): 31%; growth at 0.05 µM (MDA-MB-468): 93%; growth at 50 µM (COLO 205 [16]): 65%
